This is an account of results in patent publication US20020028938A1, “Prostaglandin endoperoxide H synthase biosynthesis inhibitors” (priority 1997, published 2002).

The target in data set [1] is T1, recombinant human Cox-1 (r-hu Cox1) (Homo sapiens, UniProt P23219).
T1 construct: made in house; host or cells: baculovirus/Sf9 insect cells (microsomes)
As to the kind of experiment: Recombinant human PGHS-1 enzyme assay (RHUCX1). It is filed as biochemical. The procedure, abridged:
(§1)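 Recombinant enzyme reaction ran 2.5 minutes at room temperature, then was quenched with HCl and neutralized with NaOH. PGE2 formed with and without drug was quantified by EIA against standards in the same milieu. Percent inhibition versus control mean; IC50 by linear regression.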

Data set [2] deals with T2, human amnionic whole cell cyclooxygenase-2 (WISH cells) (Homo sapiens, UniProt P35354).
T2 construct: endogenous in cells; host or cells: human amnionic WISH cells, induced with IL-1beta
T2 sequence (P35354 18-604): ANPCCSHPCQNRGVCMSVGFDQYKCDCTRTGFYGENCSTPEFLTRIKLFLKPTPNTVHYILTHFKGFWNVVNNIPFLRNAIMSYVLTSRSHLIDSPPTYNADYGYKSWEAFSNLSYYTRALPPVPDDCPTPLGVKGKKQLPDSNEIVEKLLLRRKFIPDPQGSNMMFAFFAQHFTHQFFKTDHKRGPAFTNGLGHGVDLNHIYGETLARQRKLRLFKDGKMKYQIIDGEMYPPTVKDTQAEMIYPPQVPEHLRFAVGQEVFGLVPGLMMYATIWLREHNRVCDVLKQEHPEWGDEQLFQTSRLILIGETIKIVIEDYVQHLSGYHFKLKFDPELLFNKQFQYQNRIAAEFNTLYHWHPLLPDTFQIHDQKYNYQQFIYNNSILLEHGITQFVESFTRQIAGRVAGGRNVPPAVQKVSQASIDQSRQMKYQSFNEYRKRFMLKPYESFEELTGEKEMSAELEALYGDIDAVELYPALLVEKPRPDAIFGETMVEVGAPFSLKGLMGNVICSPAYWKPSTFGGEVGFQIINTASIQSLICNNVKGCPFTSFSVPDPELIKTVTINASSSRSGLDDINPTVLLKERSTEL
The data set can be described thus: IL-1β induced PGE2 production in WISH cells. The class given is cell-based. The settings on record: for IC50: read-out: Wish IC50 (parenthetical value). The procedure: EIA reagents for prostaglandin determination were purchased from Perseptive Diagnostics, (Cambridge, Mass.). Prostaglandin E2 (PGE2) levels in lavage fluids were determined after the samples were dried under nitrogen and reconstituted with assay buffer. PGE2 levels in enzyme assays or cell culture media were measured against standards prepared in the same milieu. The immunoassays were conducted as recommended by the manufacturer. The EIA was conducted in 96 well microtiter plates (Nunc Roskilde, Denmark) and optical density was measured using a microplate reader (Vmax, Molecular Devices Corp., Menlo Park, Calif.).
Human amnionic WISH cells were grown to 80% confluence in 48 well plates. Following removal of the growth medium and two washings with Geys Balanced Salt Solutn, 5 ng IL-1β /ml (UBI, Lake Placid, N.Y.) was added to the cells with or without test compound in DMSO (0.01% v/v) in Neuman-Tytell Serumless Medium (GIBCO, Grand Island, N.Y.).

Data set [3] concerns the target T3, recombinant human Cox-2 (r-hu Cox-2) (Homo sapiens, UniProt P35354).
T3 construct: made in house; host or cells: baculovirus/Sf9 insect cells (microsomes)
T3 sequence (P35354 18-604): T2 sequence (P35354 18-604)
As to the kind of experiment: Recombinant human PGHS-2 enzyme assay (RHUCX2). It is filed as biochemical. As to conditions: for IC50: read-out: RHUCX2 IC50 (parenthetical value). The procedure, abridged:
as §1

The mark [4] stands for this setting: 100 μM, read-out: RHUCX1 % Inh. at Dose.
Where [5] appears, read: read-out: RHUCX2 % Inh. at Dose.
Setting [6] is: read-out: Wish % Inhib. at Dose.

T1 sequence (P23219 24-599): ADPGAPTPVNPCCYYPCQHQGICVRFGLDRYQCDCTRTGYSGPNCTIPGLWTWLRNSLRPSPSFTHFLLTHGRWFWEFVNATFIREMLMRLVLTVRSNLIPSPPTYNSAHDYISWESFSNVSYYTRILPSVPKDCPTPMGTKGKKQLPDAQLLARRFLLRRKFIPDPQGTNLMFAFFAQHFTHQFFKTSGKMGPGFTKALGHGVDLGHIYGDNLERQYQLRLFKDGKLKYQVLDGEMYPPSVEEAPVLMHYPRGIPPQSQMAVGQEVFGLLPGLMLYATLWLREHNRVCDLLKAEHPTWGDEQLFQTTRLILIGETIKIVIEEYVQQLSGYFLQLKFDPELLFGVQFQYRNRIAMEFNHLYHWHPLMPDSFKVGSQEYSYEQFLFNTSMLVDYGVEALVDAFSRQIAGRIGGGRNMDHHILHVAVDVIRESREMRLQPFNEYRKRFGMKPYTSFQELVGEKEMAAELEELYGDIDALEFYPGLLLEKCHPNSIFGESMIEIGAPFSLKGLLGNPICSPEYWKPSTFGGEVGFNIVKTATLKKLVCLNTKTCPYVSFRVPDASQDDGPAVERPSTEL

Consider `CS(=O)(=O)c1ccc(-c2cnn(Cc3ccccc3)c(=O)c2-c2ccc(Cl)c(Cl)c2)cc1` [Example 65, 2-Benzyl-4-(3,4-dichlorophenyl)-5-[4-(methylsulfonyl)phenyl]-3(2H)-pyridazinone], for which the melting point is 161 to 163 °C. Besides, in data set [1] (setting [4]), the inhibition at 100 µM amounted to 13%. Besides, in data set [2], the IC50 was found to be 20 nM. For the same molecule, in data set [3] (setting [5]), the inhibition at 0.1 µM was 65% and the inhibition at 1 µM turned out to be 98%.
The molecule `CS(=O)(=O)c1ccc(-c2cnn(C3C4CC5CC(C4)CC3C5)c(=O)c2-c2ccc(F)cc2)cc1` (centres unmarked) [Example 132, 2-(2-Adamantyl)-4-(4-fluorophenyl)-5-[4-(methylsulfonyl)phenyl]-3(2H)-pyridazinone] displayed a melting point of 195 to 197 °C. Further, in data set [1] (1 μM, read-out: RHUCX1 % Inh. at Dose), the inhibition at 1 µM came to 93%. The inhibition at 0.01 µM in data set [2] (0.01 μM, read-out: Wish % Inhib. at Dose) came to 36%. Further, the inhibition at 0.1 µM in data set [2] (setting [6]) worked out at 100%. For the same molecule, in data set [3] (setting [5]), the inhibition at 0.1 µM turned out to be 43% and the inhibition at 1 µM was found to be 88%.
As for `CS(=O)(=O)c1ccc(-c2cnn(-c3ccc(F)c(F)c3)c(=O)c2Cc2ccc(F)cc2)cc1` [Example 171, 2-(3,4-Difluorophenyl)-4-(4-fluorobenzyl)-5-[4-(methylsulfonyl)phenyl]-3(2H)-pyridazinone], the melting point lay in the range of 157 to 159 °C. Also, the inhibition at 100 µM in data set [1] (setting [4]) came out at 0%. Also, the inhibition at 0.1 µM in data set [2] (setting [6]) worked out at 56%. The inhibition at 1 µM in data set [2] (1 μM, read-out: Wish % Inhib. at Dose) is 90%. Moreover, in data set [3] (setting [5]), the inhibition at 0.1 µM is 61% and the inhibition at 1 µM amounted to 74%. In addition, in data set [3] (10 μM, read-out: RHUCX2 % Inh. at Dose), the inhibition at 10 µM worked out at 82%.
Molecule `CC(C)CSCc1c(-c2ccc(S(C)(=O)=O)cc2)cnn(-c2ccc(F)cc2)c1=O` [Example 198, 2-(4-Fluorophenyl)-4-(2-methylpropylthiomethyl)-5-[4-(methylsulfonyl)phenyl]-3(2H)-pyridazinone] yielded a melting point of 45 to 60 °C. The inhibition at 100 µM in data set [1] (setting [4]) stood at 10%. Besides, the IC50 in data set [2] was 184 nM. In addition, in data set [3] (setting [5]), the inhibition at 0.1 µM amounted to 23% and the inhibition at 1 µM worked out at 68%.
`CS(=O)(=O)c1ccc(-c2cnn(-c3cccc(Cl)c3)c(=O)c2Cc2cccc(F)c2)cc1` [Example 241, 2-(3-Chlorophenyl)-4-(3-fluorobenzyl)-5-[4-(methylsulfonyl)phenyl]-3(2H)-pridazinone] showed a melting point of 142 to 143 °C. In addition, the inhibition at 100 µM in data set [1] (setting [4]) is 0%. In data set [2], the IC50 came to 47.4 nM. The IC50 in data set [3] is 28 nM.
Molecule `CC(C)CCc1c(-c2ccc(S(C)(=O)=O)c(F)c2)cnn(-c2ccc(F)c(Cl)c2)c1=O` [Example 252, 2-(3-Chloro-4-fluorophenyl)-4-(3-methylbutyl)-5-[3-fluoro-4-(methylsulfonyl)phenyl]-3(2H)-pyridazinone] yielded a melting point of 102 to 104 °C. The inhibition at 100 µM in data set [1] (setting [4]) turned out to be 0%. Moreover, the IC50 in data set [2] amounted to 44 nM. Besides, the inhibition at 0.01 µM in data set [3] (0.01 μM, read-out: RHUCX2 % Inh. at Dose) was found to be 26%. The inhibition at 0.1 µM in data set [3] (setting [5]) stood at 87%.
Regarding `C=Cc1ccc(-c2c(-c3ccc(S(C)(=O)=O)cc3)cnn(Cc3ccccc3)c2=O)cc1` [Example 322, 2-Benzyl-4-(4-vinylphenyl)-5-[4-(methylsulfonyl)phenyl]-3(2H)-pridazinone], the inhibition at 10 µM in data set [1] (10 μM, read-out: RHUCX1 % Inh. at Dose) was 54%. The inhibition at 100 µM in data set [1] (setting [4]) worked out at 39%. The IC50 in data set [2] is 26 nM; in data set [3] it was 58 nM.
Regarding `CS(=O)(=O)c1ccc(-c2cnn(Cc3ccccc3)c(=O)c2-c2ccc(C(F)(F)F)cc2)cc1` [Example 323, 2-Benzyl-4-(4-trifluormethylphenyl)-5-[4-(methylsulfonyl)phenyl]-3(2H)-pyridazinone], the “RHUCX1 % Inh. at Dose (μM)” value in data set [1] (100 μM) is reported as 1 @ 100%. In addition, in data set [2] (0.01 μM), the “Wish % Inhib. at Dose (μM)” value is listed as 57 @ 0.01%. The IC50 in data set [3] stood at 365 nM.
On to `CC(C)=CCCOc1c(-c2ccc(S(N)(=O)=O)cc2)cnn(-c2ccc(F)c(F)c2)c1=O` [Example 410], for which the results for the “RHUCX1 % Inh. at Dose (μM)” value in data set [1] (10 μM) and in data set [1] (100 μM) were 1 @ 10% and 48 @ 100%, respectively. Further, the IC50 in data set [2] was 53 nM. Also, the “RHUCX2 % Inh. at Dose (μM)” value in data set [3] (0.017 μM) is listed as 47 @ 0.017%; in data set [3] (0.035 μM), 67 @0 .035%.
